# Measured values as given in ChEMBL document CHEMBL1201862, “PubChem BioAssay data set” (2004).
#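 Grown in 96-well plates, cells were treated for 48 hours with each compound at five concentrations. Insufficient inhibition: endpoint recorded as highest concentration tested. Here, GI50 denotes the concentration required for 50% inhibition of growth.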 The source made the active and inactive calls. No stated cut-off is given here; in the data, active = GI50 up to about 1.1 µM and inactive = higher.
# Tests used:
# Assay in all cases: NCI-60 cell line screen, 48 h
# [1] = test system: 786-0
# [2] = test system: A549
# [3] = test system: ACHN
# [4] = test system: CAKI-1
# [5] = test system: CCRF-CEM
# [6] = test system: COLO 205
# [7] = test system: DLD-1
# [8] = test system: DMS-114
# [9] = test system: DMS-273
# [10] = test system: EKVX
# [11] = test system: HCC 2998
# [12] = test system: HCT-116
# [13] = test system: HOP-62
# [14] = test system: HOP-92
# [15] = test system: HT-29
# [16] = test system: IGROV-1
# [17] = test system: K562
# [18] = test system: KM-20L2
# [19] = test system: KM12
# [20] = test system: LOX IMVI
# [21] = test system: LXFL 529
# [22] = test system: M14
# [23] = test system: M19-MEL
# [24] = test system: MOLT-4
# [25] = test system: Malme-3M
# [26] = test system: NCI-H226
# [27] = test system: NCI-H23
# [28] = test system: NCI-H460
# [29] = test system: NCI-H522
# [30] = test system: OVCAR-3
# [31] = test system: OVCAR-4
# [32] = test system: OVCAR-5
# [33] = test system: OVCAR-8
# [34] = test system: RXF 393
# [35] = test system: SF-268
# [36] = test system: SF-295
# [37] = test system: SF-539
# [38] = test system: SK-MEL-28
# [39] = test system: SK-MEL-2
# [40] = test system: SK-MEL-5
# [41] = test system: SK-OV-3
# [42] = test system: SN12C
# [43] = test system: SNB-19
# [44] = test system: SNB-75
# [45] = test system: SNB-78
# [46] = test system: SR
# [47] = test system: SW-620
# [48] = test system: TK-10
# [49] = test system: U-251
# [50] = test system: UACC-62
# [51] = test system: UO-31
# [52] = test system: XF498
# [53] = test system: A498
# [54] = test system: RPMI-8226
# [55] = test system: UACC-257
# [56] = test system: HCT-15
# [57] = test system: HL-60
smiles,measurement,setting,value
O=c1c2cccnc2ncn1CCN1CCCCC1,GI50,[1],> 100 µM (inactive)
same,GI50,[2],> 100 µM (inactive)
same,GI50,[3],> 100 µM (inactive)
same,GI50,[4],> 100 µM (inactive)
same,GI50,[5],> 100 µM (inactive)
same,GI50,[6],> 100 µM (inactive)
same,GI50,[7],> 100 µM (inactive)
same,GI50,[8],> 100 µM (inactive)
same,GI50,[9],> 100 µM (inactive)
same,GI50,[10],> 100 µM (inactive)
same,GI50,[11],> 100 µM (inactive)
same,GI50,[12],> 100 µM (inactive)
same,GI50,[13],> 100 µM (inactive)
same,GI50,[14],> 100 µM (inactive)
same,GI50,[15],> 100 µM (inactive)
same,GI50,[16],> 100 µM (inactive)
same,GI50,[17],> 100 µM (inactive)
same,GI50,[18],> 100 µM (inactive)
same,GI50,[19],> 100 µM (inactive)
same,GI50,[20],> 100 µM (inactive)
same,GI50,[21],> 100 µM (inactive)
same,GI50,[22],> 100 µM (inactive)
same,GI50,[23],> 100 µM (inactive)
same,GI50,[24],> 100 µM (inactive)
same,GI50,[25],> 100 µM (inactive)
same,GI50,[26],> 100 µM (inactive)
same,GI50,[27],> 100 µM (inactive)
same,GI50,[28],> 100 µM (inactive)
same,GI50,[29],> 100 µM (inactive)
same,GI50,[30],> 100 µM (inactive)
same,GI50,[31],> 100 µM (inactive)
same,GI50,[32],> 100 µM (inactive)
same,GI50,[33],> 100 µM (inactive)
same,GI50,[34],> 100 µM (inactive)
same,GI50,[35],> 100 µM (inactive)
same,GI50,[36],> 100 µM (inactive)
same,GI50,[37],> 100 µM (inactive)
same,GI50,[38],> 100 µM (inactive)
same,GI50,[39],> 100 µM (inactive)
same,GI50,[40],> 100 µM (inactive)
same,GI50,[41],> 100 µM (inactive)
same,GI50,[42],> 100 µM (inactive)
same,GI50,[43],> 100 µM (inactive)
same,GI50,[44],> 100 µM (inactive)
same,GI50,[45],> 100 µM (inactive)
same,GI50,[46],> 100 µM (inactive)
same,GI50,[47],> 100 µM (inactive)
same,GI50,[48],> 100 µM (inactive)
same,GI50,[49],> 100 µM (inactive)
same,GI50,[50],> 100 µM (inactive)
same,GI50,[51],> 100 µM (inactive)
same,GI50,[52],> 100 µM (inactive)
COc1cc2ccc3c4cc(OC)c(OCc5ccccc5)cc4cnc3c2cc1OC,GI50,[1],> 100 µM (inactive)
same,GI50,[53],> 100 µM (inactive)
same,GI50,[2],> 100 µM (inactive)
same,GI50,[3],> 100 µM (inactive)
same,GI50,[4],> 100 µM (inactive)
same,GI50,[5],> 100 µM (inactive)
same,GI50,[6],> 100 µM (inactive)
same,GI50,[7],> 100 µM (inactive)
same,GI50,[8],> 100 µM (inactive)
same,GI50,[10],> 100 µM (inactive)
same,GI50,[11],> 100 µM (inactive)
same,GI50,[13],> 100 µM (inactive)
same,GI50,[15],> 100 µM (inactive)
same,GI50,[16],> 100 µM (inactive)
same,GI50,[17],> 100 µM (inactive)
same,GI50,[18],> 100 µM (inactive)
same,GI50,[19],> 100 µM (inactive)
same,GI50,[21],> 100 µM (inactive)
same,GI50,[22],> 100 µM (inactive)
same,GI50,[23],> 100 µM (inactive)
same,GI50,[24],70.6 µM (inactive)
same,GI50,[25],> 100 µM (inactive)
same,GI50,[27],> 100 µM (inactive)
same,GI50,[28],> 100 µM (inactive)
same,GI50,[29],> 100 µM (inactive)
same,GI50,[30],> 100 µM (inactive)
same,GI50,[31],> 100 µM (inactive)
same,GI50,[32],> 100 µM (inactive)
same,GI50,[33],> 100 µM (inactive)
same,GI50,[54],61.9 µM (inactive)
same,GI50,[35],> 100 µM (inactive)
same,GI50,[36],> 100 µM (inactive)
same,GI50,[38],> 100 µM (inactive)
same,GI50,[39],> 100 µM (inactive)
same,GI50,[40],> 100 µM (inactive)
same,GI50,[41],> 100 µM (inactive)
same,GI50,[42],> 100 µM (inactive)
same,GI50,[44],> 100 µM (inactive)
same,GI50,[45],> 100 µM (inactive)
same,GI50,[47],> 100 µM (inactive)
same,GI50,[48],> 100 µM (inactive)
same,GI50,[49],> 100 µM (inactive)
same,GI50,[55],> 100 µM (inactive)
same,GI50,[50],> 100 µM (inactive)
same,GI50,[51],70 µM (inactive)
same,GI50,[52],> 100 µM (inactive)
N#Cc1c2nc3ccccc3nc2n2ccccc12,GI50,[1],> 100 µM (inactive)
same,GI50,[53],76 µM (inactive)
same,GI50,[2],> 100 µM (inactive)
same,GI50,[3],> 100 µM (inactive)
same,GI50,[4],> 100 µM (inactive)
same,GI50,[5],> 100 µM (inactive)
same,GI50,[6],> 100 µM (inactive)
same,GI50,[7],> 100 µM (inactive)
same,GI50,[8],> 100 µM (inactive)
same,GI50,[9],> 100 µM (inactive)
same,GI50,[10],> 100 µM (inactive)
same,GI50,[11],> 100 µM (inactive)
same,GI50,[12],> 100 µM (inactive)
same,GI50,[56],> 100 µM
same,GI50,[57],> 100 µM (inactive)
same,GI50,[13],> 100 µM (inactive)
same,GI50,[16],> 100 µM (inactive)
same,GI50,[17],> 100 µM (inactive)
same,GI50,[18],> 100 µM (inactive)
same,GI50,[19],> 100 µM (inactive)
same,GI50,[20],> 100 µM (inactive)
same,GI50,[21],> 100 µM (inactive)
same,GI50,[22],> 100 µM (inactive)
same,GI50,[23],> 100 µM (inactive)
same,GI50,[24],> 100 µM (inactive)
same,GI50,[25],> 100 µM (inactive)
same,GI50,[27],> 100 µM (inactive)
same,GI50,[28],> 100 µM (inactive)
same,GI50,[29],> 100 µM (inactive)
same,GI50,[30],> 100 µM (inactive)
same,GI50,[31],> 100 µM (inactive)
same,GI50,[32],> 100 µM (inactive)
same,GI50,[33],> 100 µM (inactive)
same,GI50,[54],> 100 µM (inactive)
same,GI50,[35],> 100 µM (inactive)
same,GI50,[37],> 100 µM (inactive)
same,GI50,[38],> 100 µM (inactive)
same,GI50,[39],> 100 µM (inactive)
same,GI50,[40],> 100 µM (inactive)
same,GI50,[41],0.63 µM (active)
same,GI50,[42],> 100 µM (inactive)
same,GI50,[43],> 100 µM (inactive)
same,GI50,[44],> 100 µM (inactive)
same,GI50,[45],> 100 µM (inactive)
same,GI50,[46],> 100 µM (inactive)
same,GI50,[47],> 100 µM (inactive)
same,GI50,[48],> 100 µM (inactive)
same,GI50,[49],> 100 µM (inactive)
same,GI50,[55],> 100 µM (inactive)
same,GI50,[50],> 100 µM (inactive)
same,GI50,[51],> 100 µM (inactive)
same,GI50,[52],> 100 µM (inactive)
